Tested on: U2OS
Assay: Growth inhibition of human U2OS cells after 3 days in presence of werner syndrome helicase inhibitor NSC 19630
Type: functional

Q: Which “growth inhibition (GI)” value does the source give for Cc1oc2nc1-c1nc(co1)-c1nc(co1)-c1nc(co1)-c1nc(co1)-c1nc(co1)C1=NC(CS1)c1nc-2c(C)o1 (stereo unspecified) [TELOMESTATIN] here?
A: 70%

— ChEMBL document CHEMBL3351309, “DNA binders in clinical trials and chemotherapy” (2014)
